The record followed here is ChEMBL document CHEMBL1155858, “Derivatives of (3S)-N-(biphenyl-2-ylmethyl)pyrrolidin-3-amine as selective noradrenaline reuptake inhibitors: Reducing P-gp mediated efflux by modulation of H-bond acceptor capacity” (Bioorg Med Chem Lett, 2008).

Data set [1] concerns the target Voltage-gated inwardly rectifying potassium channel KCNH2 (Homo sapiens, UniProt Q12809). The experiment in a line: Displacement of [3H]dofetilide from human ERG channel.
Data set [2] has as its target Cytochrome P450 2D6 (Homo sapiens, UniProt P10635). In words: Inhibition of CYP2D6. Type of data set: ADME.
Data set [3] can be described thus: Distribution coefficient, log D at pH 7.4. As to conditions: octanol/water. Type of data set: physicochemical.
Data set [4] can be described thus: Inhibition of sodium channel site 2.
Data set [5] in a line: Inhibition of L type calcium channel.
Data set [6] is described as follows: Dissociation constant, pKa of the compound. Type of data set: physicochemical.
Data set [7] can be described thus: Apparent permeability from apical to basolateral side of the MDCK cells expressing MDR1 gene. The data set is classed as ADME, cell-based, Canis lupus familiaris. As to conditions: dog.
Data set [8] concerns the target Sodium-dependent noradrenaline transporter (Homo sapiens, UniProt P23975). In words: Inhibition of [3H]nisoxetine reuptake at human NET expressed in HEK293 cells by SPA. Type of data set: cell-based.
Data set [9] has as its target Cytochrome P450 2C9 (Homo sapiens, UniProt P11712). The experiment in a line: Inhibition of CYP2C9. The data set is classed as ADME.
Data set [10] deals with T1, Sodium-dependent serotonin transporter (Homo sapiens, UniProt P31645). In words: Inhibition of [3H]citalopram uptake at human 5HTT expressed in HEK293 cells by SPA. The data set is classed as cell-based.
T1 sequence (P31645 whole entry): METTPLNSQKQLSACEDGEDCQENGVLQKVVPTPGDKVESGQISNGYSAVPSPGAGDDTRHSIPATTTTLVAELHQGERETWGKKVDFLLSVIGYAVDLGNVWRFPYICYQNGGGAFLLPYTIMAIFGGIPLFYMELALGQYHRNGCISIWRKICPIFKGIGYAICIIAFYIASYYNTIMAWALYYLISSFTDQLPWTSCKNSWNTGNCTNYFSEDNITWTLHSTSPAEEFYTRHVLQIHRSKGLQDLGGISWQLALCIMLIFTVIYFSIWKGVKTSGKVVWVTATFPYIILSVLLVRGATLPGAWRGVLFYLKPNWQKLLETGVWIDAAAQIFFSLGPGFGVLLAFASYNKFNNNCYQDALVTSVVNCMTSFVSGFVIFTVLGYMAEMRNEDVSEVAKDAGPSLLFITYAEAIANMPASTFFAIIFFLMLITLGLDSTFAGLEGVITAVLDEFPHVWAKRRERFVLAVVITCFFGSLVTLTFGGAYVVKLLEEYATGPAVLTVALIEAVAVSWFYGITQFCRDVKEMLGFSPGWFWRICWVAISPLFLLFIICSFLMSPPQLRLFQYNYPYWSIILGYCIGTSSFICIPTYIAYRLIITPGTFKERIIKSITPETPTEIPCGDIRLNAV
For data set [11], the target named is T2, Cytochrome P450 1A2 (Homo sapiens, UniProt P05177).
T2 sequence (P05177 whole entry): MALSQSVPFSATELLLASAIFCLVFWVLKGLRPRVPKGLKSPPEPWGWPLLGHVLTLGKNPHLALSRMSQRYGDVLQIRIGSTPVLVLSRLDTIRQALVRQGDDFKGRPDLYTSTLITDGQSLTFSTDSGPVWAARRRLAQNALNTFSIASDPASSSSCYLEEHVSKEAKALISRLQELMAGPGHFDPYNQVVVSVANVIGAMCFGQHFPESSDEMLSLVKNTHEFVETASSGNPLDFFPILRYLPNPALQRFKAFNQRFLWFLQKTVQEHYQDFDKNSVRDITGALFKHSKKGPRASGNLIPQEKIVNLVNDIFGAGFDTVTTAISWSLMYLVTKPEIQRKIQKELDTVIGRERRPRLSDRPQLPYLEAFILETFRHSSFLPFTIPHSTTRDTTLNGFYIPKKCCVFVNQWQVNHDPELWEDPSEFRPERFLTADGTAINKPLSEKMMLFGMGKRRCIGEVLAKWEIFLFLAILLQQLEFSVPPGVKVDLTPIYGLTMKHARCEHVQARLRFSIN
The experiment in a line: Inhibition of CYP1A2. The data set is classed as ADME.

In data set [12] the target is Cytochrome P450 3A4 (Homo sapiens, UniProt P08684). The experiment in a line: Inhibition of CYP3A4. Type of data set: ADME.
Cytochrome P450 3A4, sequence (P08684 whole entry): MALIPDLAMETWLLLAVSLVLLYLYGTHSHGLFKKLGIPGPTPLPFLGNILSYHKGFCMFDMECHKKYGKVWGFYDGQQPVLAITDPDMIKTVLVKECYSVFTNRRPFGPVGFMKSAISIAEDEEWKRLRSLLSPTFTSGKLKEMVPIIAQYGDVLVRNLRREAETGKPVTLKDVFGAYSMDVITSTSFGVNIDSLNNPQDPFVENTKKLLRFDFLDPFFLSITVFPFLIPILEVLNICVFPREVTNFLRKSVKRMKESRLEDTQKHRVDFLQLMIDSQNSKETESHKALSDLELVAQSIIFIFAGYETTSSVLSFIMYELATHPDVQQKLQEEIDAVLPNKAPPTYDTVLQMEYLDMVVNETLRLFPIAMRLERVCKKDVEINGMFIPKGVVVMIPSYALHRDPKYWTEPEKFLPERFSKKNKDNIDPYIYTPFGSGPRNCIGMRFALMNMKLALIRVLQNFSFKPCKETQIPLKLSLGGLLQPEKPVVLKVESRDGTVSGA
A short description of data set [13]: Ratio of permeability from basolateral to apical side over apical to basolateral side of MDCK cells expressing MDR1 gene. The conditions noted are these: dog.
The nature of data set [14]: Metabolic stability in human liver microsomes assessed as intrinsic clearance. Type of data set: ADME, Microsome. (In general: Microsomes from liver hold many membrane-bound enzymes, among them those of drug oxidation.)
In data set [15] the target is T3, Sodium-dependent dopamine transporter (Homo sapiens, UniProt Q01959). In words: Inhibition of [3H]dopamine reuptake at human DAT expressed in HEK293 cells by SPA. Type of data set: cell-based.
T3 sequence (Q01959 whole entry): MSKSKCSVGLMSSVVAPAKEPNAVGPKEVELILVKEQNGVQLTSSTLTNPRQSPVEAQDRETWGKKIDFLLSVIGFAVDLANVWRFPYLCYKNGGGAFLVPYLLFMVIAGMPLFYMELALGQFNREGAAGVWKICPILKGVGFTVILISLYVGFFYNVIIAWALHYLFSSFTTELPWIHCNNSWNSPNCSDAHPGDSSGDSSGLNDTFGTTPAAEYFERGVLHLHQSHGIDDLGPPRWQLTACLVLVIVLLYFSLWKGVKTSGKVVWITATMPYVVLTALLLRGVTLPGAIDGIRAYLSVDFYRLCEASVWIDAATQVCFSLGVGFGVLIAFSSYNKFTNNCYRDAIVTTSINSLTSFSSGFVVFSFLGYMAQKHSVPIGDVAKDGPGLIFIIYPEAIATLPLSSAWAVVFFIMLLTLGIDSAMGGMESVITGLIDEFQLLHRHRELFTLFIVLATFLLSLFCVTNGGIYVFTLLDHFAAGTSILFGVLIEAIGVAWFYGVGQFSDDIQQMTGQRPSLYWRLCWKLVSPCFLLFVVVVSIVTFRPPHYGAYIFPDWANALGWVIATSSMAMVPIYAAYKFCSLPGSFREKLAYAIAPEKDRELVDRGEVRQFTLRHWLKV
Data set [16] is described as follows: Apparent permeability from basolateral to apical side of the MDCK cells expressing MDR1 gene. As to conditions: dog. The data set is classed as ADME, cell-based, Canis lupus familiaris.
The species named for data set [17] is Homo sapiens. The experiment in a line: Selectivity for human NET over human SERT.
The subject of data set [18] is Hepatocyte. The experiment in a line: Metabolic stability in human hepatocytes assessed as intrinsic clearance. The data set is classed as ADME, cell-based, Liver.
The species entered for data set [19] is Homo sapiens. The experiment in a line: Selectivity for human NET over human DAT.
Data set [20] deals with CYP3A4 (Homo sapiens, UniProt P08684). In words: Inhibition of CYP3A4 at 3 uM. Type of data set: ADME.
CYP3A4, sequence (P08684 whole entry): as the sequence (P08684 whole entry) above
The target of data set [21] is CYP2C9 (Homo sapiens, UniProt P11712). In words: Inhibition of CYP2C9 at 3 uM. The data set is classed as ADME.
Data set [22] has as its target CYP2D6 (Homo sapiens, UniProt P10635). In words: Inhibition of CYP2D6 at 3 uM. The data set is classed as ADME.
Data set [23] addresses T1, Sodium-dependent serotonin transporter.
Description: Inhibition of [3H]5HT uptake at human SERT expressed in HEK293 cells
Data set [24] deals with T3, Sodium-dependent dopamine transporter.
Description: Inhibition of [3H]dopamine uptake at human DAT expressed in HEK293 cells
Data set [25] deals with Liver microsomes. In words: Metabolic stability in human liver microsomes. The data set is classed as ADME, Microsome.
Data set [26] has as its target CYP1A2 (Homo sapiens, UniProt P05177). In words: Inhibition of CYP1A2 at 3 uM. The data set is classed as ADME.
For data set [27], the target named is T4, Muscarinic acetylcholine receptor M3 (Homo sapiens, UniProt P20309). The experiment in a line: Inhibition of muscarinic M3 receptor at 10 uM.
Data set [28] has as its target T5, 5-hydroxytryptamine receptor 2A (Homo sapiens, UniProt P28223). In words: Inhibition of 5HT2A receptor at 10 uM.
Data set [29] concerns the target T6, 5-hydroxytryptamine receptor 2B (Homo sapiens, UniProt P41595). In words: Inhibition of 5HT2B receptor at 10 uM.
Data set [30] deals with 5-hydroxytryptamine receptor 2C (Homo sapiens) (UniProt P28335). In words: Inhibition of 5HT2C receptor at 10 uM.
5-hydroxytryptamine receptor 2C (Homo sapiens), sequence (P28335 whole entry): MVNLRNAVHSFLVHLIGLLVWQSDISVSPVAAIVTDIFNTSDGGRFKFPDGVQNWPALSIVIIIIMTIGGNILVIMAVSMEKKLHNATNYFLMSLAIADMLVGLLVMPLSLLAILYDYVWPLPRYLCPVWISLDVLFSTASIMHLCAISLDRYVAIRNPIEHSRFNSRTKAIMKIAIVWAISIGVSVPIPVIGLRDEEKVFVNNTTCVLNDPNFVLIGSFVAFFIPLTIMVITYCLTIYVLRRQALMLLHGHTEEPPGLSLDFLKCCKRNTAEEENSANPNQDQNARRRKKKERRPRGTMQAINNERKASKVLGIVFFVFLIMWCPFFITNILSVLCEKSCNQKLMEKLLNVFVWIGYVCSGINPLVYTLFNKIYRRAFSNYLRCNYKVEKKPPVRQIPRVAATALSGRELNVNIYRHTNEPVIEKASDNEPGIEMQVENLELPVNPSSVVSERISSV
The target in data set [31] is T5, 5-hydroxytryptamine receptor 2A. The experiment in a line: Activity at 5HT2A receptor.
The test system of data set [32] is Rattus norvegicus. The experiment in a line: Increase in noradrenaline level in interstitial fluid of sc dosed conscious rat prefrontal cortex relative to baseline. The data set is classed as functional.
Data set [33] in a line: Apparent permeability from apical to basolateral side of the human Caco-2 membrane. The data set is classed as ADME, cell-based. Background: Caco-2 cells form a polarised layer with tight junctions and transporters.
Data set [34] has as its target T4, Muscarinic acetylcholine receptor M3. The experiment in a line: Inhibition of muscarinic M3 receptor.
In data set [35] the target is 5-hydroxytryptamine receptor 2C (Homo sapiens, UniProt P28335). The experiment in a line: Activity at 5HT2C receptor.
5-hydroxytryptamine receptor 2C, sequence (P28335 whole entry): as above
Data set [36] deals with T6, 5-hydroxytryptamine receptor 2B. In words: Activity at 5HT2B receptor.
A short description of data set [37]: Apparent permeability from basolateral to apical side of the human Caco-2 membrane. Type of data set: ADME, cell-based.
The nature of data set [38]: Inhibition of [3H]NA uptake at rat NET expressed in HEK293 cells. The data set is classed as cell-based.

Where only a bound is given, the exact number is not on record here.

A word on the Ki: it is a measure of affinity in units of concentration, obtained from inhibition or displacement. What is called IC50 is the concentration at which inhibition is half-maximal. Read a high IC50 as a need for much substance. What is called logD is the decadic logarithm of the distribution of all forms, ionised or not, between an organic phase and buffer at a given pH. The low end stands for a more hydrophilic compound, the high end for a more lipophilic compound. The term pKa denotes the negative logarithm of the acid dissociation constant. A lower pKa goes with a group that gives up its proton readily. A word on the Papp A→B: it is the apparent permeability from the apical to the basolateral side of a cell layer. A word on the efflux ratio: it is the permeability from basolateral to apical divided by that in the opposite direction, in the common usage. In general, microsomal CLint refers to a measure of how fast metabolising enzymes remove a compound, apart from limits set by blood flow. For orientation: Papp B→A means how fast a substance crosses the layer from the basolateral side. What is called inhibition is how much of the control response was suppressed. As a reminder, the EC50 is the concentration needed to bring the measured effect to its halfway point. A lower EC50 goes with higher potency in that assay.

Cytochrome P450 2D6, sequence (P10635 whole entry): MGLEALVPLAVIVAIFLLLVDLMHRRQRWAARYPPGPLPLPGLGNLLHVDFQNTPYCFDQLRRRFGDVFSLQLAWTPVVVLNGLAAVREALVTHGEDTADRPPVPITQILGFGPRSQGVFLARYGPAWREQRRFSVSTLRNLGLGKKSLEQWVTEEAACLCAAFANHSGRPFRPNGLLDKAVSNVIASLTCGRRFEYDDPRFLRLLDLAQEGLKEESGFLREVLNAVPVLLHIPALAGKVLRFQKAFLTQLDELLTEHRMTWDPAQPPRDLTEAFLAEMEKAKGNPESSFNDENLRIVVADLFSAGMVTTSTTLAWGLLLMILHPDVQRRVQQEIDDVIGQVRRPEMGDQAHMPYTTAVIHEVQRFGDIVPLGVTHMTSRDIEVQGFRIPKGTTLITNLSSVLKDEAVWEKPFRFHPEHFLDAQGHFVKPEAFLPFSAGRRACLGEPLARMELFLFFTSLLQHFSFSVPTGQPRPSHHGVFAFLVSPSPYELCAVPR
Cytochrome P450 2C9, sequence (P11712 whole entry): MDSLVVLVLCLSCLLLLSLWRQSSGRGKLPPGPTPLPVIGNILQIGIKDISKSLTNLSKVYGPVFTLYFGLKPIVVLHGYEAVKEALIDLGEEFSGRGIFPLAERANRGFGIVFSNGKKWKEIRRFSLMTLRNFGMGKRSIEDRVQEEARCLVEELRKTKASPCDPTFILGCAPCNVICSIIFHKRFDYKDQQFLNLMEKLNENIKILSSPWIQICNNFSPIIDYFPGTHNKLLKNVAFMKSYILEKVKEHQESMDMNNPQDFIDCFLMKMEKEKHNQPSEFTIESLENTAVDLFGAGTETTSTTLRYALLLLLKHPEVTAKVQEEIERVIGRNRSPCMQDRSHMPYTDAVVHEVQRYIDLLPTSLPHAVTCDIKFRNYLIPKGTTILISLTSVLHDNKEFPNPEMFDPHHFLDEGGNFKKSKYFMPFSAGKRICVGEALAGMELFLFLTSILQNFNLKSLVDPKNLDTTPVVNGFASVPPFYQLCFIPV
Sodium-dependent noradrenaline transporter, sequence (P23975 whole entry): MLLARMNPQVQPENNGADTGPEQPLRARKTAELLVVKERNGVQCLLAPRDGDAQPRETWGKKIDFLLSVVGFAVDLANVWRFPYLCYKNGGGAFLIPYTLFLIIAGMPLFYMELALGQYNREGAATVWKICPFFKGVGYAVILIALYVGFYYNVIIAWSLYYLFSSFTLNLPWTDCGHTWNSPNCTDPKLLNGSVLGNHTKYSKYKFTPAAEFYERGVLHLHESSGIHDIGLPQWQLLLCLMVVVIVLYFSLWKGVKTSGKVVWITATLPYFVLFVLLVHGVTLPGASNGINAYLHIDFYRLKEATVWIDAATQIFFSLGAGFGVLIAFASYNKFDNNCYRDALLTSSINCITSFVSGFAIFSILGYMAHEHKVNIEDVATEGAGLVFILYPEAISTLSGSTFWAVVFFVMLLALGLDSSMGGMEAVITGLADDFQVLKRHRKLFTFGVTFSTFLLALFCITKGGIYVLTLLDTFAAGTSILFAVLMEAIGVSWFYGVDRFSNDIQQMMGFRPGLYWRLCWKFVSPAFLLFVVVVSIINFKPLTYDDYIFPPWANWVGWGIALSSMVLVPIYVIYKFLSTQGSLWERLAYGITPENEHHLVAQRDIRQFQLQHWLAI
T6 sequence (P41595 whole entry): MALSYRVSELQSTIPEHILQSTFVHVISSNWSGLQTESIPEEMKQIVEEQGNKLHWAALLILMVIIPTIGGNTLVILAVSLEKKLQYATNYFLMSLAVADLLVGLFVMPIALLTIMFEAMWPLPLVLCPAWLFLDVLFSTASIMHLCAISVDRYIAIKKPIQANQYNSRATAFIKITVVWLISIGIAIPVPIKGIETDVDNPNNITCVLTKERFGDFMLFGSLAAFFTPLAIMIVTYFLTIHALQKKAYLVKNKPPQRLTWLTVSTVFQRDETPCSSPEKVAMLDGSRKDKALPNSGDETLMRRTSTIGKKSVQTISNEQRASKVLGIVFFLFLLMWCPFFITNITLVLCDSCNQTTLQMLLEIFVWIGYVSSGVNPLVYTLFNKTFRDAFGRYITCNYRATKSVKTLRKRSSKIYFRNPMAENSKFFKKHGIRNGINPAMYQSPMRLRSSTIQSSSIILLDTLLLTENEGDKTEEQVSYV
T5 sequence (P28223 whole entry): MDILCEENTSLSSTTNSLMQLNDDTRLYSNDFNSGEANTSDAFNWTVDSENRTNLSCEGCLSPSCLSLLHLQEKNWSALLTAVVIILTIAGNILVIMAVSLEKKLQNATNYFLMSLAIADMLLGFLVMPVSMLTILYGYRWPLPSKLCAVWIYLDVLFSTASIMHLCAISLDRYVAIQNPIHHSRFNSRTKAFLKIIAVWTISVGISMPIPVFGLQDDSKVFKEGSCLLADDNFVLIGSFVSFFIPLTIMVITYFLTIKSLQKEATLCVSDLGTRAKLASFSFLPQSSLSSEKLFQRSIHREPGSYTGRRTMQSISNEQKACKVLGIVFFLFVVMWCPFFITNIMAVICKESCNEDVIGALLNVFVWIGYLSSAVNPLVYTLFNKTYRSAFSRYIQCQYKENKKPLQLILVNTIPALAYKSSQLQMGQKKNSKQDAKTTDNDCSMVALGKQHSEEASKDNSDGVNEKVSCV
CYP2D6, sequence (P10635 whole entry): as the sequence (P10635 whole entry) above

For the compound `CC(C)C(=O)N(Cc1ccccc1-c1ccccc1)[C@H]1CCNC1`, the Ki in data set [1] was 2840 nM; in data set [4], 1200 nM; in data set [5], greater than 10000 nM; in data set [8], 6 nM; in [10] it was 960 nM; in [15] it was 3.74 µM. Also, the IC50 in [2] was 1860 nM; in data set [9], greater than 3 µM; in data set [11], greater than 3 µM; in [12] it was greater than 3 µM. Further, in [3], the logD was 0.8. Also, the pKa in data set [6] came out at 9.4. Moreover, the Papp A→B in data set [7] was determined as 11 ×10⁻⁶ cm/s. For the same compound, the efflux ratio in data set [13] is 6.1. The intrinsic clearance (microsomal CLint) in data set [14] was less than 7 µL/min/mg. The Papp B→A in data set [16] came out at 68 ×10⁻⁶ cm/s.

For `CS(=O)(=O)N(Cc1ccccc1-c1ccccc1)[C@H]1CCNC1`, the Ki in [1] is greater than 2700 nM; in data set [4] it was 1900 nM; in data set [5], 1900 nM; in data set [8], 5 nM; in [10], 4120 nM; in data set [15], 2.67 µM. In addition, the IC50 was 3100 nM in data set [2], greater than 3 µM in data set [9], greater than 3 µM in data set [11] and greater than 3 µM in [12]. Further, in [3], the logD is 0.6. The Ratio Ki in data set [17] and in [19] was greater than 100 each time. Also, in data set [6], the pKa came to 8.9. Besides, the CL in data set [18] was less than 5 µL/min/mg. For the same compound, the Papp A→B in data set [7] came to 10 ×10⁻⁶ cm/s. Further, the efflux ratio in [13] turned out to be 5.1. For the same compound, the microsomal CLint in [14] was 7 µL/min/mg. Besides, the basolateral-to-apical permeability (Papp B→A) in data set [16] was 51 ×10⁻⁶ cm/s.

As to `CC(C)C(=O)N(Cc1cccc(Cl)c1Cl)[C@H]1CCNC1`, the results for the IC50 in [2], in [23] and in data set [24] were greater than 3000 nM, 12 nM and 1250 nM, respectively. Moreover, the inhibition at 3 µM in data set [20] is less than 40%; in data set [21], less than 40%; in data set [22], less than 10%; in data set [26], less than 40%. Besides, the t1/2 in [25] was greater than 120 min.

With `CCOC(=O)N(Cc1ccccc1-c1ccccc1)[C@H]1CCNC1`, the inhibition in data set [27], in [28], in [29] and in [30] was greater than 80% throughout. Also, the IC50 was 1210 nM in [2], greater than 3 µM in data set [9], greater than 3 µM in data set [11] and greater than 3 µM in [12]. For the same compound, the pH-dependent lipophilicity (logD) in data set [3] is 1.1. Further, the EC50 in data set [31], in data set [35] and in data set [36] was greater than 10 µM throughout. The compound further displayed an Activity in data set [32] of 400%. In addition, the Ki amounted to 1100 nM in [4]; 1500 nM in data set [5]; 8 nM in [8]; 1110 nM in data set [10]; 635 nM in [34]; 3.03 µM in data set [15]. In data set [38], this compound registered a Ki of 2.5 nM. In addition, the pKa in data set [6] was 9.6. In data set [18], the CL is less than 5 µL/min/mg. In addition, the Papp A→B in data set [7] amounted to 22 ×10⁻⁶ cm/s; in data set [33], 27 ×10⁻⁶ cm/s. In addition, the microsomal CLint in data set [14] is less than 7 µL/min/mg. For the same compound, the Papp B→A in [37] was 28 ×10⁻⁶ cm/s; in data set [16], 44 ×10⁻⁶ cm/s.
